Activity calls are given as the source filed them. The calls are words filed in the database; no cut-off is given here.
Legend:
[1] = Selectivtiy index, ratio of IC50 for equine serum BChE to IC50 for electric eel AChE
Cholinesterase = Cholinesterase (Equus caballus, UniProt P81908); assay: Inhibition of equine serum BChE using BTC as substrate preincubated for 15 mins followed by substrate addition measured at 1 min intervals by Ellman method
[2] = Cytotoxicity against human HepG2 cells at 10 uM after 48 hrs by MTT assay; assay type: cell-based; details: read-out: INH
[3] = Cytotoxicity against human HepG2 cells at 1 uM after 48 hrs by MTT assay; assay type: cell-based; details: read-out: INH
[4] = Cytotoxicity against rat PC12 cells at 1 uM after 48 hrs by MTT assay; assay type: cell-based, PC-12; details: read-out: INH
[5] = Cytotoxicity against rat PC12 cells at 10 uM after 48 hrs by MTT assay; assay type: cell-based, PC-12; details: read-out: INH
Acetylcholinesterase [6] = biological target: T1, Acetylcholinesterase (Electrophorus electricus, UniProt O42275); assay: Inhibition of electric eel AChE using ATC as substrate preincubated for 15 mins followed by substrate addition measured at 1 min intervals by Ellman method
[7] = biological target: Acetylcholinesterase (Electrophorus electricus) (UniProt O42275); assay: Potency index, ratio of IC50 for rivastigmine to IC50 for test compound for inhibition of electric eel AChE by Ellman method
Acetylcholinesterase [8] = biological target: T1, Acetylcholinesterase; assay: Mixed-type inhibition of electric eel AChE using ATC as substrate assessed as hydrolysis of ATC preincubated with protein for 15 mins followed by substrate addition by Lineweaver-Burk plot analysis
[9] = biological target: Cholinesterase (Equus caballus) (UniProt P81908); assay: Mixed-type inhibition of equine serum BChE using BTC as substrate assessed as hydrolysis of BTC preincubated with protein for 15 mins followed by substrate addition by Lineweaver-Burk plot analysis
Chain of Cholinesterase (Equus caballus) (P81908 whole entry): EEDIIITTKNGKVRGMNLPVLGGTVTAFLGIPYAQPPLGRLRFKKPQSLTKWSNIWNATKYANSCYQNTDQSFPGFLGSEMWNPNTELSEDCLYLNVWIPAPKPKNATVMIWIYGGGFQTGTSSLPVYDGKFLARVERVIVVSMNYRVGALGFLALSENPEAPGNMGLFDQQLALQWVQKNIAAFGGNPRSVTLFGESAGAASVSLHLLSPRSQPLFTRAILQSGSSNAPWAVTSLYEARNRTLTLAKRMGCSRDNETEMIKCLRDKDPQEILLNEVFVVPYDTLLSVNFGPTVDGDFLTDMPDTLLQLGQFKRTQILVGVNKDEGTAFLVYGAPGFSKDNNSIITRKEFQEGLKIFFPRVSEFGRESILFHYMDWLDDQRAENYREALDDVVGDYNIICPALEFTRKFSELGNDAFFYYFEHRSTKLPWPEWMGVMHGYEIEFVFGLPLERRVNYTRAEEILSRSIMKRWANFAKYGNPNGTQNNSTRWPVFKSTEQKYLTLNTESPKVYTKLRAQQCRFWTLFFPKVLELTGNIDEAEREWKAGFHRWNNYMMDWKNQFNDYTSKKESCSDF

Chain of Cholinesterase (P81908 whole entry): as above
T1 sequence (O42275 whole entry): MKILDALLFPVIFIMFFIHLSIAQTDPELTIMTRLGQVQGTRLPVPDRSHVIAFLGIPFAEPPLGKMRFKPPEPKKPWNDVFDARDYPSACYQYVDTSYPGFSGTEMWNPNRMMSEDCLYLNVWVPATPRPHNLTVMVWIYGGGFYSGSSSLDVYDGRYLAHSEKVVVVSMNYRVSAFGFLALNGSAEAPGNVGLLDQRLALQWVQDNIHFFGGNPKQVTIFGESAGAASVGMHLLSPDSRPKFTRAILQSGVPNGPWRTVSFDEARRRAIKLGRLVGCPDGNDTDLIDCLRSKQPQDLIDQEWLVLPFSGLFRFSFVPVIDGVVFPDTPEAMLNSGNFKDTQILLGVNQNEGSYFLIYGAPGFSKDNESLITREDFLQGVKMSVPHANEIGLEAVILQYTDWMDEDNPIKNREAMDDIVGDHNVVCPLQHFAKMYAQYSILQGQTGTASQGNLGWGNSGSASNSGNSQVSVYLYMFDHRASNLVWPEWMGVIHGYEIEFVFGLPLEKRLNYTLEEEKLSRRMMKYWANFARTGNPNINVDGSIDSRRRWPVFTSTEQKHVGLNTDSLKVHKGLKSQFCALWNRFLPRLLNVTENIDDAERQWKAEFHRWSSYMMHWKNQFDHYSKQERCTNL
Chain of Acetylcholinesterase (Electrophorus electricus) (O42275 24-633 limits assumed): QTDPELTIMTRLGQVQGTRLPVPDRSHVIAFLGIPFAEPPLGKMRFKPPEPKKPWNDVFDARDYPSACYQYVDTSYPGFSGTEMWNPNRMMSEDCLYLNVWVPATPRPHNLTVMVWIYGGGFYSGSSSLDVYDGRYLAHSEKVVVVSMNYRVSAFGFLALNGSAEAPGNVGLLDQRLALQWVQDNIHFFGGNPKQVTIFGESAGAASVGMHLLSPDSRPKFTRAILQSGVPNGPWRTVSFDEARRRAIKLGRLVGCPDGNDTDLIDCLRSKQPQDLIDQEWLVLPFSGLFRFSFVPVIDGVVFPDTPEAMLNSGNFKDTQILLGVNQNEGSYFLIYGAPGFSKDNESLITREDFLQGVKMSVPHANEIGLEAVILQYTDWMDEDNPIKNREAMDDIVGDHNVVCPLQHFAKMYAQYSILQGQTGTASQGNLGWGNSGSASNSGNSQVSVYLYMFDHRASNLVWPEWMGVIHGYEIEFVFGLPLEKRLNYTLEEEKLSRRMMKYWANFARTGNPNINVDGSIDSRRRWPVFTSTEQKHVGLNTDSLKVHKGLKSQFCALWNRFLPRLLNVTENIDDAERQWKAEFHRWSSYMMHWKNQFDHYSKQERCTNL

COc1ccc(-c2cc(=O)c3ccc(OCCCCCCCCN4CCCC4)cc3o2)cc1
Ratio IC50 [1]: 3.19
IC50 (Cholinesterase): 5.42 µM
cytotoxicity at 48 h, 10 µM [2]: 21.5%
cytotoxicity at 48 h, 1 µM [3]: 6.69%
cytotoxicity at 48 h, 1 µM [4]: -0.15%
cytotoxicity at 48 h, 10 µM [5]: -6.72%
IC50 (Acetylcholinesterase [6]): 1.7 µM

O=c1cc(-c2ccc(N3CCCC3)cc2)oc2cc(OCCCCCCCCN3CCCC3)ccc12
Ratio IC50 [1]: 2.97
IC50 (Cholinesterase): 4.1 µM
cytotoxicity at 48 h, 10 µM [2]: 19%
cytotoxicity at 48 h, 1 µM [3]: 5.74%
cytotoxicity at 48 h, 1 µM [4]: 0.29%
cytotoxicity at 48 h, 10 µM [5]: -9.56%
IC50 (Acetylcholinesterase [6]): 1.38 µM

COc1cc(-c2cc(=O)c3ccc(OCCCCCCCCN4CCCC4)cc3o2)cc(OC)c1OC
Ratio IC50 [1]: 2.04
IC50 (Cholinesterase): 2.2 µM
cytotoxicity at 48 h, 10 µM [2]: 41.4%
cytotoxicity at 48 h, 1 µM [3]: 16.3%
cytotoxicity at 48 h, 1 µM [4]: -4.47%
cytotoxicity at 48 h, 10 µM [5]: -13.8%
IC50 (Acetylcholinesterase [6]): 1.08 µM

COc1ccccc1-c1cc(=O)c2ccc(OCCCCCCCCN3CCCC3)cc2o1
Ratio IC50 [1]: 1.19
IC50 (Cholinesterase): 0.76 µM
cytotoxicity at 48 h, 10 µM [2]: 24.3%
cytotoxicity at 48 h, 1 µM [3]: 5.9%
cytotoxicity at 48 h, 1 µM [4]: 3.08%
Ratio IC50 [7]: 10
cytotoxicity at 48 h, 10 µM [5]: 3.4%
IC50 (Acetylcholinesterase [6]): 0.64 µM

O=c1cc(-c2ccccc2)oc2cc(OCCCCCCCCN3CCCC3)ccc12
Ratio IC50 [1]: 2.05
IC50 (Cholinesterase): 2.24 µM
cytotoxicity at 48 h, 10 µM [2]: 8.97%
cytotoxicity at 48 h, 1 µM [3]: 11.3%
cytotoxicity at 48 h, 1 µM [4]: -2.83%
cytotoxicity at 48 h, 10 µM [5]: 1.37%
IC50 (Acetylcholinesterase [6]): 1.09 µM

O=c1cc(-c2cccc3ccccc23)oc2cc(OCCCCCCCCN3CCCC3)ccc12
Ki (Acetylcholinesterase [8]): 0.206 µM
inhibition [9]: Active
Ratio IC50 [1]: 0.58
IC50 (Cholinesterase): 0.42 µM
cytotoxicity at 48 h, 10 µM [2]: 18.9%
cytotoxicity at 48 h, 1 µM [3]: 4.42%
cytotoxicity at 48 h, 1 µM [4]: 3%
cytotoxicity at 48 h, 10 µM [5]: 9.01%
IC50 (Acetylcholinesterase [6]): 0.72 µM

COc1cccc(-c2cc(=O)c3ccc(OCCCCCCCCN4CCCC4)cc3o2)c1
Ratio IC50 [1]: 3.42
IC50 (Cholinesterase): 2.29 µM
cytotoxicity at 48 h, 10 µM [2]: 23.7%
cytotoxicity at 48 h, 1 µM [3]: 16.2%
cytotoxicity at 48 h, 1 µM [4]: 3.53%
cytotoxicity at 48 h, 10 µM [5]: -18.2%
IC50 (Acetylcholinesterase [6]): 0.67 µM

Nc1c2c(nc3ccccc13)CCCC2 [TACRINE]
cytotoxicity at 48 h, 1 µM [4]: 4.62%
cytotoxicity at 48 h, 10 µM [5]: 10.2%

O=c1cc(-c2ccc(-c3ccccc3)cc2)oc2cc(OCCCCCCCCN3CCCC3)ccc12
Ratio IC50 [1]: > 5.21
IC50 (Cholinesterase): > 25 µM
cytotoxicity at 48 h, 10 µM [2]: 71.9%
cytotoxicity at 48 h, 1 µM [3]: 13.9%
cytotoxicity at 48 h, 1 µM [4]: 0.46%
cytotoxicity at 48 h, 10 µM [5]: 68.9%
IC50 (Acetylcholinesterase [6]): 4.8 µM

Cc1ccc(-c2cc(=O)c3ccc(OCCCCCCCCN4CCCC4)cc3o2)cc1
Ratio IC50 [1]: 1.54
IC50 (Cholinesterase): 1.92 µM
cytotoxicity at 48 h, 10 µM [2]: 77.1%
cytotoxicity at 48 h, 1 µM [3]: 9.17%
cytotoxicity at 48 h, 1 µM [4]: -0.55%
cytotoxicity at 48 h, 10 µM [5]: -0.03%
IC50 (Acetylcholinesterase [6]): 1.25 µM

COc1ccc(-c2cc(=O)c3ccc(OCCCCCCCCN4CCCC4)cc3o2)cc1OC
Ratio IC50 [1]: 4.13
IC50 (Cholinesterase): 3.43 µM
cytotoxicity at 48 h, 10 µM [2]: 76%
cytotoxicity at 48 h, 1 µM [3]: 13.5%
cytotoxicity at 48 h, 1 µM [4]: 7.29%
cytotoxicity at 48 h, 10 µM [5]: -2.94%
IC50 (Acetylcholinesterase [6]): 0.83 µM

O=c1cc(-c2ccc(Cl)cc2)oc2cc(OCCCCCCCCN3CCCC3)ccc12
Ratio IC50 [1]: 3.09
IC50 (Cholinesterase): 3.46 µM
cytotoxicity at 48 h, 10 µM [2]: 25.7%
cytotoxicity at 48 h, 1 µM [3]: 6.39%
cytotoxicity at 48 h, 1 µM [4]: 6.27%
cytotoxicity at 48 h, 10 µM [5]: -1.7%
IC50 (Acetylcholinesterase [6]): 1.12 µM

O=c1cc(-c2cccc(OCc3ccccc3)c2)oc2cc(OCCCCCCCCN3CCCC3)ccc12
Ratio IC50 [1]: > 15.8
IC50 (Cholinesterase): > 25 µM
cytotoxicity at 48 h, 10 µM [2]: 30.6%
cytotoxicity at 48 h, 1 µM [3]: 6.63%
cytotoxicity at 48 h, 1 µM [4]: 0.79%
cytotoxicity at 48 h, 10 µM [5]: -2.53%
IC50 (Acetylcholinesterase [6]): 1.58 µM

O=c1cc(-c2cccc(O)c2)oc2cc(OCCCCCCCCN3CCCC3)ccc12
Ratio IC50 [1]: 4.39
IC50 (Cholinesterase): 4.92 µM
cytotoxicity at 48 h, 10 µM [2]: 43.9%
cytotoxicity at 48 h, 1 µM [3]: 19%
cytotoxicity at 48 h, 1 µM [4]: -4.43%
cytotoxicity at 48 h, 10 µM [5]: -6.56%
IC50 (Acetylcholinesterase [6]): 1.12 µM

O=c1cc(-c2ccc(OCc3ccccc3)cc2)oc2cc(OCCCCCCCCN3CCCC3)ccc12
Ratio IC50 [1]: > 13.2
IC50 (Cholinesterase): > 25 µM
cytotoxicity at 48 h, 10 µM [2]: 54.3%
cytotoxicity at 48 h, 1 µM [3]: 10.4%
cytotoxicity at 48 h, 1 µM [4]: -2.83%
cytotoxicity at 48 h, 10 µM [5]: 1.37%
IC50 (Acetylcholinesterase [6]): 1.9 µM

O=c1cc(-c2ccccc2O)oc2cc(OCCCCCCCCN3CCCC3)ccc12
Ratio IC50 [1]: 0.41
IC50 (Cholinesterase): 1.26 µM
cytotoxicity at 48 h, 10 µM [2]: 60.6%
cytotoxicity at 48 h, 1 µM [3]: 5.92%
cytotoxicity at 48 h, 1 µM [4]: -7.71%
cytotoxicity at 48 h, 10 µM [5]: 6.61%
IC50 (Acetylcholinesterase [6]): 3.07 µM

O=c1cc(-c2ccccc2OCc2ccccc2)oc2cc(OCCCCCCCCN3CCCC3)ccc12
Ratio IC50 [1]: 2.62
IC50 (Cholinesterase): 5.26 µM
cytotoxicity at 48 h, 10 µM [2]: 34.1%
cytotoxicity at 48 h, 1 µM [3]: 19.7%
cytotoxicity at 48 h, 1 µM [4]: 0.47%
cytotoxicity at 48 h, 10 µM [5]: 22.9%
IC50 (Acetylcholinesterase [6]): 2.01 µM

O=c1cc(-c2ccc(O)cc2)oc2cc(OCCCCCCCCN3CCCC3)ccc12
Ratio IC50 [1]: 3.79
IC50 (Cholinesterase): 4.58 µM
cytotoxicity at 48 h, 10 µM [2]: 21.4%
cytotoxicity at 48 h, 1 µM [3]: 18.5%
cytotoxicity at 48 h, 1 µM [4]: 0.7%
cytotoxicity at 48 h, 10 µM [5]: 7.42%
IC50 (Acetylcholinesterase [6]): 1.21 µM

O=c1cc(-c2ccc(Br)cc2)oc2cc(OCCCCCCCCN3CCCC3)ccc12
Ratio IC50 [1]: 4.77
IC50 (Cholinesterase): 10.2 µM
cytotoxicity at 48 h, 10 µM [2]: 10.8%
cytotoxicity at 48 h, 1 µM [3]: 13.3%
cytotoxicity at 48 h, 1 µM [4]: 2.5%
cytotoxicity at 48 h, 10 µM [5]: -12.5%
IC50 (Acetylcholinesterase [6]): 2.15 µM

Source: ChEMBL document CHEMBL3751699, “Design, synthesis and evaluation of novel 7-aminoalkyl-substituted flavonoid derivatives with improved cholinesterase inhibitory activities” (Bioorg Med Chem, 2016)
